Experimental data reported in PubChem BioAssay AID1259407 (Chemical Carcinogenesis Research Information System (CCRIS), 2018).
Calls of active or inactive are those of the source. No rule for the calls is given here.

System: CCRIS mutagenicity, Ames/micronucleus/aberration tests
Test: CCRIS mutagenicity studies
[1] = Test System: AMES SALMONELLA TYPHIMURIUM, Strain/Indicator: TA98, Metabolic Activation: NONE, Method: STANDARD PLATE
[2] = Test System: AMES SALMONELLA TYPHIMURIUM, Strain/Indicator: TA100, Metabolic Activation: NONE, Method: STANDARD PLATE

## Cc1ccc2cc3c4c(ccc3c3c2c1C[C@H]3O)[C@H](O)[C@@H](O)C=C4
Test System: CHINESE HAMSTER V-79, Strain/Indicator: V-79/8-AZAGUANINE, Metabolic Activation: RAT, LIVER, S-9, AROCLOR, Method: STANDARD PLATE
  mutagenic call: active; positive

## [Na+]
Test System: AMES SALMONELLA TYPHIMURIUM, Strain/Indicator: TA97, Metabolic Activation: HAMSTER, LIVER, S-9, AROCLOR 1254 (10 OR 30%), Method: PREINCUBATION
  mutagenic call: inactive; negative
Test System: AMES SALMONELLA TYPHIMURIUM, Strain/Indicator: TA97, Metabolic Activation: NONE, Method: PREINCUBATION
  mutagenic call: inactive; negative
Test System: AMES SALMONELLA TYPHIMURIUM, Strain/Indicator: TA97, Metabolic Activation: RAT, LIVER, S-9, AROCLOR 1254 (10 OR 30%), Method: PREINCUBATION
  mutagenic call: inactive; negative
Test System: AMES SALMONELLA TYPHIMURIUM, Strain/Indicator: TA98, Metabolic Activation: HAMSTER, LIVER, S-9, AROCLOR 1254 (10 OR 30%), Method: PREINCUBATION
  mutagenic call: inactive; negative
Test System: AMES SALMONELLA TYPHIMURIUM, Strain/Indicator: TA98, Metabolic Activation: NONE, Method: PREINCUBATION
  mutagenic call: inactive; negative
Test System: AMES SALMONELLA TYPHIMURIUM, Strain/Indicator: TA98, Metabolic Activation: RAT, LIVER, S-9, AROCLOR 1254 (10 OR 30%), Method: PREINCUBATION
  mutagenic call: inactive; negative
Test System: AMES SALMONELLA TYPHIMURIUM, Strain/Indicator: TA100, Metabolic Activation: HAMSTER, LIVER, S-9, AROCLOR 1254 (10 OR 30%), Method: PREINCUBATION
  mutagenic call: inactive; negative
Test System: AMES SALMONELLA TYPHIMURIUM, Strain/Indicator: TA100, Metabolic Activation: NONE, Method: PREINCUBATION
  mutagenic call: inactive; negative
Test System: AMES SALMONELLA TYPHIMURIUM, Strain/Indicator: TA100, Metabolic Activation: RAT, LIVER, S-9, AROCLOR 1254 (10 OR 30%), Method: PREINCUBATION
  mutagenic call: inactive; negative
Test System: AMES SALMONELLA TYPHIMURIUM, Strain/Indicator: TA1535, Metabolic Activation: HAMSTER, LIVER, S-9, AROCLOR 1254 (10 OR 30%), Method: PREINCUBATION
  mutagenic call: inactive; negative
Test System: AMES SALMONELLA TYPHIMURIUM, Strain/Indicator: TA1535, Metabolic Activation: NONE, Method: PREINCUBATION
  mutagenic call: inactive; negative
Test System: AMES SALMONELLA TYPHIMURIUM, Strain/Indicator: TA1535, Metabolic Activation: RAT, LIVER, S-9, AROCLOR 1254 (10 OR 30%), Method: PREINCUBATION
  mutagenic call: inactive; negative
Test System: AMES SALMONELLA TYPHIMURIUM, Strain/Indicator: TA1537, Metabolic Activation: HAMSTER, LIVER, S-9, AROCLOR 1254 (30%), Method: PREINCUBATION
  mutagenic call: inactive; negative
Test System: AMES SALMONELLA TYPHIMURIUM, Strain/Indicator: TA1537, Metabolic Activation: NONE, Method: PREINCUBATION
  mutagenic call: inactive; negative
Test System: AMES SALMONELLA TYPHIMURIUM, Strain/Indicator: TA1537, Metabolic Activation: RAT, LIVER, S-9, AROCLOR 1254 (30%), Method: PREINCUBATION
  mutagenic call: inactive; negative
Test System: CHINESE HAMSTER OVARY, Strain/Indicator: CHO-K1-BH4 (HGPRT), Metabolic Activation: NONE, Method: SUSPENSION/PLATE
  mutagenic call: inactive; negative
Test System: CHINESE HAMSTER OVARY, Strain/Indicator: CHO-K1-BH4 (HGPRT), Metabolic Activation: RAT, LIVER, S-9, AROCLOR, Method: SUSPENSION/PLATE
  mutagenic call: inactive; negative
Test System: MOUSE LYMPHOMA, Strain/Indicator: L5178Y (TK+/TK-), Metabolic Activation: NONE, Method: SUSPENSION/PLATE
  mutagenic call: active; positive

## CC[C@H](C)[C@H](NC(=O)[C@H](Cc1ccc(O)cc1)NC(=O)CNC(=O)[C@@H](NC(=O)[C@@H](NC(=O)[C@H](CS)NC(=O)[C@H](CC(N)=O)NC(=O)[C@H](CS)NC(=O)[C@H](C)NC(=O)[C@H](Cc1ccc(O)cc1)NC(=O)[C@H](CCCCN)NC(=O)[C@H](CC(=O)O)NC(=O)[C@H](CC(C)C)NC(=O)[C@H](C)NC(=O)[C@H](CCC(=O)O)NC(=O)[C@@H](NC(=O)[C@H](Cc1ccc(O)cc1)NC(=O)[C@H](CCSC)NC(=O)[C@H](CS)NC(=O)[C@@H](NC(=O)CNC(=O)[C@H](CC(=O)O)NC(=O)[C@H](Cc1cnc[nH]1)NC(=O)[C@H](CC(C)C)NC(=O)[C@H](CS)NC(=O)[C@H](Cc1ccc(O)cc1)NC(=O)CNC(=O)[C@H](CC(=O)O)NC(=O)[C@H](Cc1cnc[nH]1)NC(=O)[C@H](CO)NC(=O)[C@H](CC(C)C)NC(=O)[C@@H]1CCCN1C(=O)[C@H](CS)NC(=O)[C@H](CCC(=O)O)NC(=O)[C@H](CO)NC(=O)[C@H](CC(=O)O)NC(=O)[C@H](CO)NC(=O)[C@@H](N)CC(N)=O)C(C)C)[C@@H](C)CC)C(C)C)C(C)C)C(=O)NCC(=O)N[C@@H](CCC(=O)O)C(=O)N[C@@H](CCCNC(=N)N)C(=O)N[C@@H](CS)C(=O)N[C@@H](CCC(N)=O)C(=O)N[C@@H](Cc1ccc(O)cc1)C(=O)N[C@@H](CCCNC(=N)N)C(=O)N[C@@H](CC(=O)O)C(=O)N[C@@H](CC(C)C)C(=O)N[C@@H](CCCCN)C(=O)N[C@@H](Cc1c[nH]c2ccccc12)C(=O)N[C@@H](Cc1c[nH]c2ccccc12)C(=O)N[C@@H](CCC(=O)O)C(=O)N[C@@H](CC(C)C)C(=O)N[C@@H](CCCNC(=N)N)C(=O)O
[1]
  mutagenic call: inactive; negative
Test System: AMES SALMONELLA TYPHIMURIUM, Strain/Indicator: TA98, Metabolic Activation: RAT, LIVER, S-9, PHENOBARBITAL AND 5,6-BENZOFLAVONE, Method: STANDARD PLATE
  mutagenic call: inactive; negative
[2]
  mutagenic call: inactive; negative
Test System: AMES SALMONELLA TYPHIMURIUM, Strain/Indicator: TA100, Metabolic Activation: RAT, LIVER, S-9, PHENOBARBITAL AND 5,6-BENZOFLAVONE, Method: STANDARD PLATE
  mutagenic call: inactive; negative
Test System: AMES SALMONELLA TYPHIMURIUM, Strain/Indicator: TA1535, Metabolic Activation: NONE, Method: STANDARD PLATE
  mutagenic call: inactive; negative
Test System: AMES SALMONELLA TYPHIMURIUM, Strain/Indicator: TA1535, Metabolic Activation: RAT, LIVER, S-9, PHENOBARBITAL AND 5,6-BENZOFLAVONE, Method: STANDARD PLATE
  mutagenic call: inactive; negative
Test System: AMES SALMONELLA TYPHIMURIUM, Strain/Indicator: TA1537, Metabolic Activation: NONE, Method: STANDARD PLATE
  mutagenic call: inactive; negative
Test System: AMES SALMONELLA TYPHIMURIUM, Strain/Indicator: TA1537, Metabolic Activation: RAT, LIVER, S-9, PHENOBARBITAL AND 5,6-BENZOFLAVONE, Method: STANDARD PLATE
  mutagenic call: inactive; negative
Test System: E. COLI, Strain/Indicator: WP2 UVRA, Metabolic Activation: NONE, Method: STANDARD PLATE
  mutagenic call: inactive; negative
Test System: E. COLI, Strain/Indicator: WP2 UVRA, Metabolic Activation: RAT, LIVER, S-9, PHENOBARBITAL AND 5,6-BENZOFLAVONE, Method: STANDARD PLATE
  mutagenic call: inactive; negative

## [Br][Pb][Br]
Test System: AMES SALMONELLA TYPHIMURIUM, Strain/Indicator: TA1535, Metabolic Activation: NONE
  mutagenic call: active; positive
Test System: AMES SALMONELLA TYPHIMURIUM, Strain/Indicator: TA1537, Metabolic Activation: NONE
  mutagenic call: inactive; negative

## c1ccc2c(c1)CC[C@@H]1CCC[C@@H]3O[C@]213
[1]
  mutagenic call: inactive; negative
[2]
  mutagenic call: inactive; negative
